The values below come from ChEMBL document CHEMBL5236658, “Trienomycin A-simplified analogs: Synthesis and anti-neuroinflammatory activity” (Bioorg Med Chem Lett, 2023).

The test system of series [1] is BV-2. The series can be described thus: Antineuroinflammatory activity in mouse BV-2 cells assessed as inhibition of LPS-induced NO production at 10 uM by Griess assay. On the set-up: scale not given: the % may be the effect or the level left. It counts as functional. (The Griess reaction detects nitrite, a stable product of nitric oxide.)
A short description of series [2]: Cytotoxicity against mouse BV-2 cells assessed as cell viability at 20 uM. It counts as toxicity, cell-based. The following applies: read-out: Activity.
Series [3] relates to BV-2. The series can be described thus: Antineuroinflammatory activity in mouse BV-2 cells assessed as inhibition of LPS-induced NO production by Griess assay. It counts as functional, cell-based.
A short description of series [4]: Neurotoxicity against rat PC-12 cells at 20 uM incubated for 24 hrs by MTT assay. The note with it: pc-12, 24 h. The format is toxicity, cell-based.
For a further series, the system named is PC-12. The series can be described thus: Neuroprotective activity against H2O2-induced rat PC-12 cells injury assessed as cell viability at 10 uM preincubated for 4 hrs followed by H2O2 stimulation and measured after 24 hrs by MTT assay (reference value: 56%). The format is functional. The note with it: time 28 hrs, read-out: Activity. For orientation: Formazan colour is commonly taken as a measure of viable cells.

In the case of `C[C@@H](NC(=O)C1CCCCC1)C(=O)OC1CCCCCCCCCCC1`, the Activity in the series on BV-2 [1] is given as 19%. Also, in series [2], the viability at 20 µM stood at 105%.

As for `C[C@@H](NC(=O)C1CCCCC1)C(=O)OCC1CCCCC1`, the Activity with BV-2 [1] was 31.1%; in series [4], “Non-Toxic”. Also, the EC50 with BV-2 [3] was determined as 24.1 µM. The viability at 20 µM in series [2] turned out to be 98.3%.

On to `O=c1c(O)c(-c2ccc(O)c(O)c2)oc2cc(O)cc(O)c12` [QUERCETIN], for which the Activity in the series with BV-2 [1] is 63.2%. Further, the viability at 20 µM in series [2] came to 98.7%.

Consider `C[C@@H](NC(=O)C1CCCCC1)C(=O)OC1CCCCCC1`, for which, in the series with BV-2 [1], the Activity is reported as 18%. In addition, in series [2], the viability at 20 µM was 96.1%.

With `C[C@H](NC(=O)C1CCCCC1)C(=O)OC1CCCCC1`, the Activity with BV-2 [1] was 41.8%; in series [4] it was “Non-Toxic”. Further, the EC50 with BV-2 [3] was 17.3 µM. In addition, the viability at 10 µM with PC-12 was determined as 67%. Moreover, the viability at 20 µM in series [2] stood at 91.5%.

Consider `C[C@@H](NC(=O)C1CCCCC1)C(=O)OC1C=CCCC1` (some centres undefined), for which the Activity with BV-2 [1] was 14.5%. For the same molecule, the viability at 20 µM in series [2] came to 85.4%.

As for `C[C@@H](NC(=O)C1CCCCC1)C(=O)OC1CCCCC1`, the Activity with BV-2 [1] was 34.6%; in series [4], “Non-Toxic”. Also, in the series with BV-2 [3], the half-maximal effective concentration (EC50) was 22 µM. For the same molecule, the viability at 20 µM in series [2] was 97.5%.

On to `C[C@@H](NC(=O)C1CCCCC1)C(=O)OC1CCCCCCC1`, for which the Activity with BV-2 [1] worked out at 8.3%. In addition, the viability at 20 µM in series [2] stood at 84%.

Take `C[C@@H](NC(=O)C1CCCCC1)C(=O)OC1CCCC1`: the Activity in the series with BV-2 [1] was 36%; in series [4], “Non-Toxic”. Also, in series [2], the viability at 20 µM stood at 86.2%.

With `C[C@@H](NC(=O)C1CCCCC1)C(=O)OC1CC1`, the Activity in the series on BV-2 [1] stood at 9.7%. The viability at 20 µM in series [2] was 97.6%.

On to `C[C@@H](NC(=O)C1CCCCC1)C(=O)OC1CC/C=C\CCC1` (some centres undefined), for which the Activity with BV-2 [1] is 28.4%. Besides, in series [2], the viability at 20 µM is 112%.

Regarding `CO[C@H]1/C=C/C=C/C=C/C[C@H](OC(=O)[C@@H](C)NC(=O)C2CCCCC2)[C@H](C)[C@@H](O)/C(C)=C\CCc2cc(O)cc(c2)NC(=O)C1` [TRIENOMYCIN A], the EC50 in the series on BV-2 [3] amounted to 0.02 µM.

Take `C[C@@H](NC(=O)C1CCCCC1)C(=O)OC1CCC1`: the Activity with BV-2 [1] is 8%. For the same molecule, in series [2], the viability at 20 µM turned out to be 106%.

For the molecule `C[C@@H](NC(=O)C1CCCCC1)C(=O)OC1CCCCCCCCCCCCCC1`, in the series on BV-2 [1], the Activity was found to be 12.5%. In addition, the viability at 20 µM in series [2] was 109%.

With `C[C@@H](NC(=O)C1CCCCC1)C(=O)OCc1ccccc1`, the Activity in the series on BV-2 [1] is given as 47.2%; in series [4], “Non-Toxic”. In addition, the half-maximal effective concentration (EC50) with BV-2 [3] came to 12.4 µM. For the same molecule, the viability at 10 µM in the series with PC-12 is 80%. Moreover, the viability at 20 µM in series [2] turned out to be 93%.

With `C[C@H](NC(=O)C1CCCCC1)C(=O)OCc1ccccc1`, the results for the Activity (with BV-2 [1]; in series [4]) were 31.8% and “Non-Toxic”, respectively. Moreover, the EC50 with BV-2 [3] was found to be 23.6 µM. The viability at 20 µM in series [2] amounted to 90%.

On to `C[C@@H](NC(=O)C1CCCCC1)C(=O)OC1CC=CC1`, for which the Activity in the series with BV-2 [1] is 17.7%. In addition, the viability at 20 µM in series [2] was 91.5%.

With `C[C@H](NC(=O)C1CCCCC1)C(=O)OCC1CCCCC1`, the Activity with BV-2 [1] is 52.9%; in series [4] it was “Non-Toxic”. In addition, the EC50 in the series with BV-2 [3] was determined as 8.9 µM. Further, the viability at 10 µM in the series with PC-12 was 76%. The viability at 20 µM in series [2] is 92.7%.

Consider `C[C@@H](NC(=O)C1CCCCC1)C(=O)O`, for which the Activity in the series with BV-2 [1] was determined as 6.72%. Also, the viability at 20 µM in series [2] was determined as 101%.

Turning to `CO[C@H]1/C=C/C=C/C=C/C[C@H](O)[C@H](C)[C@@H](O)/C(C)=C\CCc2cc(O)cc(c2)NC(=O)C1`, the EC50 in the series with BV-2 [3] was found to be 13 µM.

The EC50 is the midpoint of the concentration-response curve.
